The target in this experiment is TRKA (Homo sapiens (Human), UniProt P04629). Put plainly: Isolated TRK enzyme assay (HTRF KinEASE-TK), TRKA. Type of experiment: biochemical. Particulars: read-out: Trka enzyme (IC50). On the technique in general: In TR-FRET formats the signal depends on donor and acceptor labels being close together.
Chain of TRKA (P04629 441-796): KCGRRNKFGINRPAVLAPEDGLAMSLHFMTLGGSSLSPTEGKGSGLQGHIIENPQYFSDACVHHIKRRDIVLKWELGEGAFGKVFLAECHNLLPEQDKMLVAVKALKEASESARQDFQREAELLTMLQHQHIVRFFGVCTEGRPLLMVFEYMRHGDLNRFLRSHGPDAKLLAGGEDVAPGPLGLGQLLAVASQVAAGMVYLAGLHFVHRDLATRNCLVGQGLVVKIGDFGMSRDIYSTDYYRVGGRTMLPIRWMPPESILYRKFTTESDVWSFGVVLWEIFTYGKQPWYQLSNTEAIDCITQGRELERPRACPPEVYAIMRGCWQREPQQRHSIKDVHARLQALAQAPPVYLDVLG

Consider `COCC(C)(C)n1cc(C(=O)c2cncc(NC(=O)Cn3cc(C(F)(F)F)cn3)c2)c2cnc(N)nc21` [Example 551, N-{5-[2-Amino-7-(2-methoxy-1,1-dimethyl-ethyl)-7H-pyrrolo[2,3-d]pyrimidine-5-carbonyl]-pyridin-3-yl}-2-(4-trifluoromethyl-pyrazol-1-yl)-acetamide], for which the half-inhibitory concentration (IC50) (as a rule, the concentration that gives 50% inhibition) was found to be 2.78 nM. As for `COCC(C)(C)n1cc(C(=O)c2cncc(NC(=O)Cn3cc(C4CC4)nn3)c2)c2cnc(N)nc21` [Example 552, N-{5-[2-Amino-7-(2-methoxy-1,1-dimethyl-ethyl)-7H-pyrrolo[2,3-d]pyrimidine-5-carbonyl]-pyridin-3-yl}-2-(4-cyclopropyl-[1,2,3]triazol-1-yl)-acetamide], the concentration for half-maximal inhibition (IC50) came out at 7.62 nM. The result for `CC(C)(CO)n1cc(C(=O)c2cncc(NC(=O)Cn3cc4ccccc4n3)c2)c2cnc(N)nc21` [Example 553, N-{5-[2-Amino-7-(2-hydroxy-1,1-dimethyl-ethyl)-7H-pyrrolo[2,3-d]pyrimidine-5-carbonyl]-pyridin-3-yl}-2-indazol-2-yl-acetamide] reads 4.4 nM; that for `CC(C)(CO)n1cc(C(=O)c2cncc(NC(=O)Cn3cnc4ccccc4c3=O)c2)c2cnc(N)nc21` [Example 554, N-{5-[2-Amino-7-(2-hydroxy-1,1-dimethyl-ethyl)-7H-pyrrolo[2,3-d]pyrimidine-5-carbonyl]-pyridin-3-yl}-2-(4-oxo-4H-quinazolin-3-yl)-acetamide], 270 nM. Take `CC(C)(CO)n1cc(C(=O)c2cncc(NC(=O)Cc3ncc(F)cc3F)c2)c2cnc(N)nc21` [Example 555, N-{5-[2-Amino-7-(2-hydroxy-1,1-dimethyl-ethyl)-7H-pyrrolo[2,3-d]pyrimidine-5-carbonyl]-pyridin-3-yl}-2-(3,5-difluoro-pyridin-2-yl)-acetamide]: the concentration for half-maximal inhibition (IC50) came out at 150 nM. As to `Cc1ccc(CC(=O)Nc2cncc(C(=O)c3cn(C(C)(C)CO)c4nc(N)ncc34)c2)nc1` [Example 556, N-{5-[2-Amino-7-(2-hydroxy-1,1-dimethyl-ethyl)-7H-pyrrolo[2,3-d]pyrimidine-5-carbonyl]-pyridin-3-yl}-2-(5-methyl-pyridin-2-yl)-acetamide], the 50% inhibitory concentration (IC50) was 3.16 nM. On to `CN(c1ccc(CC(=O)Nc2cncc(C(=O)c3cn(C(C)(C)CO)c4nc(N)ncc34)c2)cc1)S(C)(=O)=O` [Example 557, N-(5-{[2-amino-7-(2-hydroxy-1,1-dimethylethyl)-7H-pyrrolo[2,3-d]pyrimidin-5-yl]carbonyl}pyridin-3-yl)-2-{4-[methyl(methylsulfonyl)amino]phenyl}-acetamide], for which the IC50 stood at 9.47 nM. Consider `CC(C)(CO)n1cc(C(=O)c2cncc(NC(=O)Cc3nc4ccccc4[nH]3)c2)c2cnc(N)nc21` [Example 558, N-{5-[2-Amino-7-(2-hydroxy-1,1-dimethyl-ethyl)-7H-pyrrolo[2,3-d]pyrimidine-5-carbonyl]-pyridin-3-yl}-2-(1H-benzoimidazol-2-yl)-acetamide], for which the 50% inhibitory concentration (IC50) was determined as 5.56 nM. As for `CC(C)(CO)n1cc(C(=O)c2cncc(NC(=O)Cn3cc(C(F)(F)F)ccc3=O)c2)c2cnc(N)nc21` [Example 559, N-{5-[2-Amino-7-(2-hydroxy-1,1-dimethyl-ethyl)-7H-pyrrolo[2,3-d]pyrimidine-5-carbonyl]-pyridin-3-yl}-2-(2-oxo-5-trifluoromethyl-2H-pyridin-1-yl)-acetamide], the half-maximal inhibitory concentration (IC50) is 374 nM. The result for `CC(C)(CO)n1cc(C(=O)c2cncc(NC(=O)Cc3ncc(Cl)cc3F)c2)c2cnc(N)nc21` [Example 560, N-{5-[2-Amino-7-(2-hydroxy-1,1-dimethyl-ethyl)-7H-pyrrolo[2,3-d]pyrimidine-5-carbonyl]-pyridin-3-yl}-2-(5-chloro-3-fluoro-pyridin-2-yl)-acetamide] reads 1610 nM.

In the case of `CCOc1ccc(CC(=O)Nc2cncc(C(=O)c3cn(C(C)(C)CO)c4nc(N)ncc34)c2)nc1` [Example 561, N-{5-[2-Amino-7-(2-hydroxy-1,1-dimethyl-ethyl)-7H-pyrrolo[2,3-d]pyrimidine-5-carbonyl]-pyridin-3-yl}-2-(5-ethoxy-pyridin-2-yl)-acetamide], the IC50 came to 112 nM.

For the molecule `CC(C)(CO)n1cc(C(=O)c2cncc(NC(=O)Cc3ccc(C(F)(F)F)cn3)c2)c2cnc(N)nc21` [Example 562, N-{5-[2-Amino-7-(2-hydroxy-1,1-dimethyl-ethyl)-7H-pyrrolo[2,3-d]pyrimidine-5-carbonyl]-pyridin-3-yl}-2-(5-trifluoromethyl-pyridin-2-yl)-acetamide], the IC50 came to 3.75 nM. With `CC(C)(CO)n1cc(C(=O)c2cncc(NC(=O)Cn3cc(C(F)(F)F)cn3)c2)c2cnc(N)nc21` [Example 563, N-{5-[2-Amino-7-(2-hydroxy-1,1-dimethyl-ethyl)-7H-pyrrolo[2,3-d]pyrimidine-5-carbonyl]-pyridin-3-yl}-2-(4-trifluoromethyl-pyrazol-1-yl)-acetamide], the IC50 is 3.11 nM. The result for `CC(C)(CO)n1cc(C(=O)c2cncc(NC(=O)Cc3ccc(NS(C)(=O)=O)cc3)c2)c2cnc(N)nc21` [Example 564, N-{5-[2-Amino-7-(2-hydroxy-1,1-dimethyl-ethyl)-7H-pyrrolo[2,3-d]pyrimidine-5-carbonyl]-pyridin-3-yl}-2-(4-methanesulfonylamino-phenyl)-acetamide] reads 1.57 nM; that for `CC(C)(CO)n1cc(C(=O)c2cncc(NC(=O)Cc3ccc(OC(F)F)cc3)c2)c2cnc(N)nc21` [Example 565, N-{5-[2-Amino-7-(2-hydroxy-1,1-dimethyl-ethyl)-7H-pyrrolo[2,3-d]pyrimidine-5-carbonyl]-pyridin-3-yl}-2-(4-difluoromethoxy-phenyl)-acetamide], 17.9 nM; that for `CC(C)(CO)n1cc(C(=O)c2cncc(NC(=O)Cc3ccc(OC(F)(F)F)cc3)c2)c2cnc(N)nc21` [Example 567, N-{5-[2-Amino-7-(2-hydroxy-1,1-dimethyl-ethyl)-7H-pyrrolo[2,3-d]pyrimidine-5-carbonyl]-pyridin-3-yl}-2-(4-trifluoromethoxy-phenyl)-acetamide], 20.8 nM. The result for `CC(C)(CO)n1cc(C(=O)c2cncc(NC(=O)Cc3ccc(F)c(F)c3)c2)c2cnc(N)nc21` [Example 568, N-{5-[2-Amino-7-(2-hydroxy-1,1-dimethyl-ethyl)-7H-pyrrolo[2,3-d]pyrimidine-5-carbonyl]-pyridin-3-yl}-2-(3,4-difluoro-phenyl)-acetamide] reads 12.1 nM; that for `CC(C)(CO)n1cc(C(=O)c2cncc(NC(=O)Cc3ncc(Cl)cn3)c2)c2cnc(N)nc21` [Example 569, N-{5-[2-Amino-7-(2-hydroxy-1,1-dimethyl-ethyl)-7H-pyrrolo[2,3-d]pyrimidine-5-carbonyl]-pyridin-3-yl}-2-(5-chloro-pyrimidin-2-yl)-acetamide], 34.4 nM; that for `N#Cc1ccc(CC(=O)Nc2cncc(C(=O)c3c[nH]c4ncncc34)c2)cc1` [Example 570, 2-(4-Cyano-phenyl)-N-[5-(7H-pyrrolo[2,3-d]pyrimidine-5-carbonyl)-pyridin-3-yl]-acetamide], 6970 nM. Consider `CC1(n2cc(C(=O)c3cncc(NC(=O)Cc4ccc(C(F)(F)F)cc4)c3)c3cncnc32)COC1` [Example 571, N-{5-[7-(3-Methyl-oxetan-3-yl)-7H-pyrrolo[2,3-d]pyrimidine-5-carbonyl]-pyridin-3-yl}-2-(4-trifluoromethyl-phenyl)-acetamide], for which the IC50 was 2.92 nM.
